Results: PubChem BioAssay (NCI)
Several values for one entry are separate records, joined by “and”; a condition that tells them apart may be missing. Equal values may be shown once.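 Each compound was tested at five concentrations against cells in 96-well plates for 48 hours. GI50 = concentration required for 50% inhibition of growth. TGI denotes the concentration required for complete inhibition of growth.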

Columns and labels:
Assay in all cases: NCI anticancer screen, dose series, 48 h
MCF7 breast = system: MCF7 breast
T-47D breast = system: T-47D breast
EKVX NSCLC = system: EKVX NSCLC
COLO 205 colon = system: COLO 205 colon
SK-MEL-5 melanoma = system: SK-MEL-5 melanoma
HS 578T breast = system: HS 578T breast
NCI/ADR-RES ovarian = system: NCI/ADR-RES ovarian
PC-3 prostate = system: PC-3 prostate
K-562 leukemia = system: K-562 leukemia
DU-145 prostate = system: DU-145 prostate

Structure (SMILES)	TGI (MCF7 breast)	TGI (T-47D breast)	TGI (EKVX NSCLC)	TGI (COLO 205 colon)	TGI (SK-MEL-5 melanoma)	TGI (HS 578T breast)	TGI (NCI/ADR-RES ovarian)	TGI (PC-3 prostate)	TGI (K-562 leukemia)	TGI (DU-145 prostate)	GI50 (MCF7 breast)	GI50 (T-47D breast)	GI50 (EKVX NSCLC)	GI50 (COLO 205 colon)	GI50 (SK-MEL-5 melanoma)	GI50 (HS 578T breast)	GI50 (NCI/ADR-RES ovarian)	GI50 (PC-3 prostate)	GI50 (K-562 leukemia)	GI50 (DU-145 prostate)
CCOc1cc2c(NCCCN(CCO)CCO)ncnc2c(OCC)c1OCC	> 100 µM	> 100 µM	> 100 µM	> 100 µM	> 100 µM	> 100 µM	> 100 µM	> 100 µM	> 100 µM	> 100 µM										
COc1cc(/C=C2\CC3C4CC=C5C[C@@H](OC(C)=O)CC[C@]5(C)C4CC[C@]3(C)C2=O)ccc1OCCCn1ccnc1 (stereo not given in full)	21 µM	> 50 µM	5.18 µM	> 50 µM	21.5 µM	21.3 µM	19.5 µM	42.1 µM	24.7 µM	10.2 µM	9.36 µM	19.8 µM	0.0741 µM	20.7 µM	9.39 µM	8.26 µM	8.94 µM	18 µM	9.69 µM	1.31 µM
O=c1[nH]c(=O)n(C2OC(CO)C(O)C2O)c2c1CCCC2 (stereo not given)	> 100 µM	> 100 µM	> 100 µM	> 100 µM	> 100 µM	> 100 µM	> 100 µM	> 100 µM	> 100 µM	> 100 µM										
Cn1ncc2c(N)nc(N3CCCCC3)nc21	39.9 µM	34.6 µM	> 100 µM	51.4 µM	33.8 µM	76.3 µM	> 100 µM	> 100 µM	> 100 µM	74.7 µM	17.1 µM	3.75 µM	91.2 µM	19.7 µM	18.4 µM	28.3 µM	> 100 µM	33.5 µM	62 µM	19.2 µM
Nc1nnc2cc(Cl)ccc2n1	> 100 µM	> 100 µM	> 100 µM	> 100 µM	> 100 µM	> 100 µM	> 100 µM	> 100 µM	> 100 µM	> 100 µM	> 100 µM	> 100 µM	23.6 µM	> 100 µM	> 100 µM	24.6 µM	> 100 µM	24.4 µM	> 100 µM	> 100 µM
CCOC(=O)C(Cc1c[nH]c2ccc(N(CCCl)CCCl)cc12)(NC(C)=O)C(=O)OCC	26.8 µM and 96.6 µM	51.9 µM and > 71.8 µM	403 µM	30.4 µM and 44.2 µM	25.5 µM and 137 µM	68.3 µM	47.3 µM and 64.3 µM	48.1 µM and 332 µM	57.5 µM and 47.2 µM	70 µM and 58.1 µM	2.42 µM and 3.11 µM	9.31 µM and 6.59 µM	52.2 µM and 38.7 µM	12.2 µM and 15.3 µM	7.34 µM and 24.5 µM	69.5 µM and 20.9 µM	14.6 µM and 11.7 µM	3.84 µM and 18.5 µM	22.7 µM and 12.2 µM	14.6 µM and 7.62 µM
C=C1C(=O)OC2CC1C(O)C/C(C)=C/CC/C(C)=C/C(O)CC2C (stereo not given)	7.44 µM	4.48 µM	5.81 µM	2.94 µM	15.4 µM	11 µM	4.8 µM	13.1 µM	> 30.5 µM	10.8 µM										
